Fold change (FC) and EC50 data for three molecules are collected here from ChEMBL document CHEMBL1140985, “Expanding the repertoire of small molecule transcriptional activation domains” (Bioorg Med Chem, 2009).

Experiment [1] deals with T1, Glucocorticoid receptor (Homo sapiens) (UniProt P04150).
T1 sequence (whole entry): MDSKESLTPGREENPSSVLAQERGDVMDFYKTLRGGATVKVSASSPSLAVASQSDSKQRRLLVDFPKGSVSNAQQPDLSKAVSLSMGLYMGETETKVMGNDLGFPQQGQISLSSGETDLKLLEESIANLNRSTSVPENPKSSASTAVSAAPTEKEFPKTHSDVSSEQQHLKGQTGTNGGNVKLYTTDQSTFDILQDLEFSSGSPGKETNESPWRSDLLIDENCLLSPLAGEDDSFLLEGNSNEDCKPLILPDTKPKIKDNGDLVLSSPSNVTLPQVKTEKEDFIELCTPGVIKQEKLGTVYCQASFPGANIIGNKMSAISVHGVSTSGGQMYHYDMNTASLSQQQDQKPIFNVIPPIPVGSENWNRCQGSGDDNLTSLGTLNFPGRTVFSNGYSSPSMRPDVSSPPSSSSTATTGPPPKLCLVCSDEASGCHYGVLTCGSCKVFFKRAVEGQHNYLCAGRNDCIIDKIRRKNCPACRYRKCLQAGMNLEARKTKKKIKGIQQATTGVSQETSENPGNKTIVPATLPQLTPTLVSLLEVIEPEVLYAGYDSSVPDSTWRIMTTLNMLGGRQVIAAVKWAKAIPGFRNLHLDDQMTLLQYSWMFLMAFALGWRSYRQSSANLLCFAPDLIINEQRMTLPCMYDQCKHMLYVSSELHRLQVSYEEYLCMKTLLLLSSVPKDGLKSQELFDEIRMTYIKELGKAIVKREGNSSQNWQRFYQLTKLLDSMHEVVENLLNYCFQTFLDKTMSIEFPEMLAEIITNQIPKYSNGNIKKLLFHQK
Put plainly: Transcriptional activation of Gal4(1-147) tagged glucocorticoid receptor in human HeLa cells at 1 uM by luciferase reporter gene assay relative to OxDex-AEEA. Format: cell-based.

The target in the next experiment is T2, Glucocorticoid receptor (Homo sapiens, UniProt P04150).
T2 sequence (P04150 whole entry): T1 sequence (whole entry)
Put plainly: Transcriptional activation of Gal4(1-147) tagged glucocorticoid receptor in human HeLa cells by luciferase reporter gene assay relative to OxDex-AEEA. Format: cell-based. (In a reporter assay the amount or activity of a reporter protein is the signal.)

With `CC(C)C[C@]1(CCO)C[C@H](CNC(=O)COCCOCCNC(=O)[C@@]2(O)[C@H](C)C[C@H]3[C@@H]4CCC5=CC(=O)C=C[C@]5(C)[C@@]4(F)[C@@H](O)C[C@@]32C)ON1Cc1ccccc1`, the fold change (FC) in experiment [1] worked out at 80. A half-maximal response at Glucocorticoid receptor (EC50) required 33 nM.
As for `CC(C)C[C@](CCO)(C[C@H](O)CNC(=O)COCCOCCNC(=O)[C@@]1(O)[C@H](C)C[C@H]2[C@@H]3CCC4=CC(=O)C=C[C@]4(C)[C@@]3(F)[C@@H](O)C[C@@]21C)NCc1ccccc1`, the midpoint of the response at Glucocorticoid receptor, the EC50, lay at 2500 nM.
At Glucocorticoid receptor, `CC(C)C[C@@H](NC(=O)COCCOCCNC(=O)[C@@]1(O)[C@H](C)C[C@H]2[C@@H]3CCC4=CC(=O)C=C[C@]4(C)[C@@]3(F)[C@@H](O)C[C@@]21C)C(=O)N[C@H](CO)C(=O)N[C@H](Cc1ccccc1)C(N)=O` came in with an EC50 of 1860 nM.

What is called EC50 is the concentration that produces a half-maximal response.
